# Columns and labels:
# [1] = target: T1, Mutant NTD (all five histidine residues in the HP repeats mutated to alanine) (Homo sapiens, UniProt Q9UPI3, H30A/H36A/H48A/H54A/H66A); experiment: Heme absorbance-shift assay with mutant NTD; type: binding
# T1 construct: Plasmid harboring GST-His-tag-SUMO-NTD (amino acids 1-84); GST-His-tag-SUMO (N, cleaved yes); made in house; host or cells: Escherichia coli
# [2] = target: T2, NTD of human MFSD7C (Homo sapiens, UniProt Q9UPI3); experiment: Gel-filtration assay of NTD and heme; type: binding; settings: Superdex 75; absorbance 380 nm, 415 nm and 230 nm
# T2 construct: Plasmid harboring GST-His-tag-SUMO-NTD (amino acids 1-84); GST-His-tag-SUMO (N, cleaved yes); made in house; host or cells: Escherichia coli Lemo21(DE3)
# T2 sequence (Q9UPI3 1-84): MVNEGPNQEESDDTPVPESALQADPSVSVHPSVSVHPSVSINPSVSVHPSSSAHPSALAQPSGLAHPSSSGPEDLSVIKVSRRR
# Procedure: Gel-filtration assay. Purified NTD (200 μM) was incubated with freshly prepared heme (150 μM) in a 1 mL reaction containing 5% DMSO, 25 mM HEPES-NaOH pH 7.8, and 10 mM NaCl. The solution was run over Superdex 75 (24 mL) gel-filtration column at 0.3 mL/min rate using AKTA-FPLC. Absorbance was monitored at 230, 380, and 415 nm. 2 mL injection volume was subtracted from the final elution volume. Solution containing dissolved hemin in the reaction buffer without the NTD protein aggregated on top of the Superdex 75 column, thus this control was avoided in our experiments.
# [3] = tested on: MCF7 cells; experiment: Oxygen consumption rate, parental MCF7 cells; type: cell-based, human; settings: 40 μM heme for 1 hour
# [4] = target: T2, NTD of human MFSD7C; experiment: Isothermal titration calorimetry of NTD binding to heme
# [5] = target: T3, endogenous MFSD7C and ATP5h (Mus musculus, UniProt Q91X85); experiment: Co-IP of endogenous MFSD7C and ATP5h in bone marrow-derived macrophages; type: cell-based; settings: heme treatment
# T3 construct: Co-IP and immunoblotting analysis of endogenous MFSD7C with ATP5h, SERCA2b and HMOX1 in bone marrow-derived macrophages; endogenous in cells; host or cells: bone marrow-derived macrophages from Mfsd7c fl/fl C57BL/6 mice
# T3 sequence (Q91X85 whole entry): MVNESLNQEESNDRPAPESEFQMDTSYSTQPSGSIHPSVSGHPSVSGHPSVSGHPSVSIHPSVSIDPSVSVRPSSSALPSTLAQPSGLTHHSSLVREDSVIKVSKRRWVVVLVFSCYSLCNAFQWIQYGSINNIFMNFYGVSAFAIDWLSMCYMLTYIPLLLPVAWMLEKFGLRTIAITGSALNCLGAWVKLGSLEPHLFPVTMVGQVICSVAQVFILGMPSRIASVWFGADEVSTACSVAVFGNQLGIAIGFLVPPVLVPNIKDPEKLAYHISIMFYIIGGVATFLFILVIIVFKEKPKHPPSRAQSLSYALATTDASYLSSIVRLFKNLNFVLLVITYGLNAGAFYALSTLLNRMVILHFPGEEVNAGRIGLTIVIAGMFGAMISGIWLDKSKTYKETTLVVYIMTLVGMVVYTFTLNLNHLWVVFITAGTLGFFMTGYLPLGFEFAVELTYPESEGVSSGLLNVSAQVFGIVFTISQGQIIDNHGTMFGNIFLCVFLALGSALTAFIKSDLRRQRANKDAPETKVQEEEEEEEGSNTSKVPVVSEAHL
# Procedure: NTD was incubated with heme and run on Superdex 75 gel filtration column. The flow through was measured for absorbance at 230 nm (gray), 380 nm (blue), and 415 nm (green). Absorbance intensity was normalized to maximum value. […] Heme (100 μM) absorption was set to zero. […] Wildtype (WT) and mutant (Mut) peptide sequences are shown. […] Shown are representative data from five separate experiments. […] Shown are immunoblots of MFSD7C, ATP5h, SERCA2b, and HMOX1 on whole lysates or immunoblots of MFSD7C on anti-ATP5h, anti-SERCA2b and anti-HMOX1 immunoprecipitates. Representative data from one from three experiments are shown. […] Shown are representative data from three separate experiments. WCE: whole cell extract, Sup: supernatant, Mito: 10,000 g mitochondrial fraction. […] THP-1 cells were stained with MitoTracker (green), fixed and permeabilized, and then stained with rabbit polyclonal antibody specific for the C-terminus of MFSD7C, followed with Alexa Fluor® 594-labelled goat anti-rabbit antibody (red). Nuclei were labeled using DAPI (blue). […]
# Differentiation of bone marrow-derived macrophage (BMDM). […] Cells were resuspended in DMEM media containing 10% FBS, 2 mM L-glutamine, 2 mM pyruvate, non-essential amino acids (100 μM each), 0.55 mM 2-mercaptoethanol, penicillin/streptomycin), passed through a 40 μm Falcon cell strainer (VWR) to remove large aggregates, and counted. […]
# [6] = tested on: mutant HP motif peptide; experiment: Heme absorbance-shift assay with mutant HP motif peptide; type: binding; settings: both histidine residues in the HP motif peptide mutated to alanine
# Procedure: Peptide synthesis. Wild-type HP motif peptide (HPSALAQPSGLAHP) and mutant HP motif peptide (APSALAQPSGLAAP) were synthesized using solid-phase synthesis and purified using HPLC by the Biopolymers & Proteomics Core at the Koch Institute for Integrative Cancer Research.
# Heme absorbance-shift assay. Hemin was prepared fresh before each experiment. Approximately 20 mg of hemin (Sigma) was placed in a fresh tube and resuspended with 1 mL of DMSO. The hemin solution was slowly diluted while mixing with 1 mL of 2× buffer C (25 mM HEPES-NaOH pH 7.8, 10 mM NaCl), and aggregated hemin was eliminated by passing the solution through a 0.2 μm filter unit. Hemin concentration was determined by diluting the filtered solution with 1× buffer C 1:100 and using the extinction coefficient of 58,400 cm^−1M^−1 at 385 nm. For each reaction, the 200 μL reaction mix containing 100 μM hemin, 25 mM HEPES-NaOH pH 7.8, 10 mM NaCl, and various concentrations of wild-type or mutant NTD protein, was placed in a transparent 96-well plate. Absorbance intensity was measured using Tecan Infinite M200 Pro microplate reader, between 330 and 550 nm using 5 nm steps. The absorbance intensity for dissolved hemin was subtracted from absorbance intensity from hemin incubated with various concentrations of protein.
# T1 sequence (Q9UPI3 1-84 H30A/H36A/H48A/H54A/H66A): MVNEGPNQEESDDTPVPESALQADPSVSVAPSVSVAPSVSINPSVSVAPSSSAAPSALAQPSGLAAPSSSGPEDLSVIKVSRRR
smiles,measurement,setting,value
C=CC1=C(C)c2cc3[n-]c(cc4[n-]c(cc5nc(cc1n2)C(C)=C5C=C)c(C)c4CCC(=O)O)c(CCC(=O)O)c3C.[Fe+2] [heme],absorbance shift of heme,[1],abolished
same,co-elution in gel-filtration chromatography,[2],co-eluted with the NTD
same,OCR,[3],significantly stimulated
same,heme molecules bound by the NTD,[4]; ITC,three
same,heme molecules the NTD is capable of binding,[4]; overall conclusion of Example 2,2-3
same,interactions between endogenous MFSD7C and ATP5h (co-IP),[5],disrupted
same,absorbance shift of heme,[6],abolished

# From patent US20230313199A1, “TARGET FOR MODULATING BODY MASS” (Massachusetts Institute of Technology, priority 2020, published 2023)
